Among the test systems are A549; EKVX; RXF 393; OVCAR-8; OVCAR-5; MDA-MB-231; HL-60; BT-549; SW-620; ACHN; HOP-62; SN12C; T47D; SK-MEL-28; SNB-75; HT-29; UACC-257; RPMI-8226; SK-MEL-2; SK-OV-3.
Common to all, as to assay: NCI-60 cell line screen, 48 h

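96-well plates; 48 h exposure; 5 concentrations. Endpoints by linear interpolation between flanking doses. Not reached: highest tested concentration assigned. Abbreviation: GI50, concentration required for 50% inhibition of growth.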 Activity calls are given as the source filed them. Rule as the data show it: active = GI50 up to about 1.1 µM and inactive = higher. Some results are limits rather than exact numbers.

On to `CC(C)C(=O)C(C)(C)CCc1ccccn1`, for which the GI50 in the experiment on A549, in the experiment on EKVX, in the experiment with RXF 393, in the experiment with OVCAR-8, in the experiment with OVCAR-5 and with MDA-MB-231 was > 100 µM (inactive) each time. Further, the GI50 with HL-60, in the experiment on BT-549, in the experiment on SW-620, in the experiment on ACHN, in the experiment on HOP-62 and in the experiment with SN12C was > 100 µM (inactive) each time. Further, the GI50 in the experiment with T47D, in the experiment on SK-MEL-28, with SNB-75, in the experiment on HT-29, in the experiment with UACC-257 and in the experiment on RPMI-8226 was > 100 µM (inactive) throughout. For the same molecule, the GI50 in the experiment on SK-MEL-2 and in the experiment with SK-OV-3 was > 100 µM (inactive) each time.

For `Nc1ccc2[nH]cc(CCC(=O)O)c2c1`, the GI50 with A549, with EKVX, with RXF 393, with OVCAR-8, in the experiment with OVCAR-5 and in the experiment on MDA-MB-231 was > 100 µM (inactive) each time. Moreover, the GI50 is 27.3 µM (inactive) in the experiment with HL-60; > 100 µM (inactive) in the experiment on BT-549; 88.1 µM (inactive) with SW-620; > 100 µM (inactive) in the experiment with ACHN; > 100 µM (inactive) in the experiment on HOP-62; > 100 µM (inactive) in the experiment on SN12C. Further, the GI50 in the experiment on T47D is > 100 µM (inactive); in the experiment with SK-MEL-28, > 100 µM (inactive); in the experiment with SNB-75, 46.1 µM (inactive); in the experiment with HT-29, > 100 µM (inactive); with UACC-257 it was > 100 µM (inactive); in the experiment with RPMI-8226, > 100 µM (inactive). For the same molecule, the GI50 in the experiment with SK-MEL-2 and in the experiment with SK-OV-3 was > 100 µM (inactive) throughout.

For the molecule `COc1cccc2c1C(=O)c1ccc3cc(CO)cc(O)c3c1C2=O`, the GI50 in the experiment on A549 is 0.624 µM (active); in the experiment on EKVX, 1.87 µM (inactive); in the experiment with RXF 393, 1.34 µM (inactive); in the experiment with OVCAR-8, 0.231 µM (active); in the experiment on OVCAR-5, 2.09 µM (inactive); in the experiment on MDA-MB-231, 0.594 µM (active). Besides, the GI50 in the experiment on HL-60 was 0.171 µM (active); with BT-549, 1.58 µM (inactive); in the experiment with SW-620, 0.19 µM (active); in the experiment with ACHN it was 0.509 µM (active); with HOP-62, 2.09 µM (inactive); in the experiment with SN12C, 0.748 µM (active). Further, the GI50 was 1.72 µM (inactive) in the experiment with T47D; 1.86 µM (inactive) in the experiment with SK-MEL-28; 4.29 µM (inactive) in the experiment with SNB-75; 0.813 µM (active) in the experiment on HT-29; 0.0879 µM (active) in the experiment on UACC-257; 0.74 µM (active) with RPMI-8226. Moreover, the GI50 in the experiment with SK-MEL-2 is 0.798 µM (active); with SK-OV-3 it was 2.33 µM (inactive).

On to `O=C1c2ccccc2C(=O)c2c1nc1ccccc1c2-c1cncc(-c2c3c(nc4ccccc24)C(=O)c2ccccc2C3=O)c1`, for which the GI50 is 3.29 µM (inactive) in the experiment with A549; 3.85 µM (inactive) with EKVX; 12.1 µM (inactive) in the experiment with RXF 393; 1.52 µM (inactive) in the experiment on OVCAR-8; 50.2 µM (inactive) in the experiment on OVCAR-5; 9.31 µM (inactive) with MDA-MB-231. The GI50 in the experiment with HL-60 is 1.75 µM (inactive); in the experiment with BT-549 it was 11.4 µM (inactive); in the experiment on SW-620, 6.15 µM (inactive); in the experiment with ACHN, 4.08 µM (inactive); in the experiment with HOP-62 it was 6.56 µM (inactive); in the experiment with SN12C, 3.98 µM (inactive). Further, the GI50 is 2.33 µM (inactive) with T47D; 12.4 µM (inactive) with SK-MEL-28; 5.69 µM (inactive) with SNB-75; 8.49 µM (inactive) in the experiment with HT-29; 8.63 µM (inactive) in the experiment on UACC-257; 0.361 µM (active) with RPMI-8226. Moreover, the GI50 in the experiment on SK-MEL-2 was 8.45 µM (inactive); with SK-OV-3 it was > 77.1 µM (inactive).

`CCCCCCCCCCCCc1ccsc1-c1ccc(-c2ccc(-c3sc(-c4cc(CCCCCCCCCCCC)c(-c5ccc(-c6ccc(-c7sccc7CCCCCCCCCCCC)s6)s5)s4)cc3CCCCCCCCCCCC)s2)s1`: the GI50 in the experiment with A549 is > 100 µM (inactive); in the experiment on EKVX, > 100 µM (inactive); with RXF 393, 83.4 µM (inactive); with OVCAR-8, > 100 µM (inactive); in the experiment with OVCAR-5, > 100 µM (inactive); in the experiment with MDA-MB-231 it was > 100 µM (inactive). Also, the GI50 is 19.3 µM (inactive) in the experiment with HL-60; > 100 µM (inactive) in the experiment on BT-549; > 100 µM (inactive) with SW-620; > 100 µM (inactive) with ACHN; > 100 µM (inactive) in the experiment with HOP-62; > 100 µM (inactive) in the experiment with SN12C. The GI50 in the experiment with T47D, with SK-MEL-28, with SNB-75, in the experiment on HT-29, with UACC-257 and in the experiment with RPMI-8226 was > 100 µM (inactive) each time. Besides, the GI50 with SK-MEL-2 and in the experiment with SK-OV-3 was > 100 µM (inactive) each time.

Turning to `Nc1ccccc1N/C(=C\C(=O)C(Cl)(Cl)Cl)c1ccccc1`, the GI50 with A549 is 28.8 µM (inactive); with EKVX, 15.2 µM (inactive); in the experiment on RXF 393, 19.1 µM (inactive); in the experiment with OVCAR-8, 30.5 µM (inactive); in the experiment with OVCAR-5 it was 15.7 µM (inactive); with MDA-MB-231, 15.2 µM (inactive). Moreover, the GI50 in the experiment with HL-60 is 20.5 µM (inactive); with BT-549, 25.7 µM (inactive); with SW-620, 28.8 µM (inactive); in the experiment with ACHN, 24.1 µM (inactive); with HOP-62, 23.6 µM (inactive); in the experiment on SN12C, 20.1 µM (inactive). Further, the GI50 in the experiment on T47D is 20.7 µM (inactive); with SK-MEL-28 it was 35.5 µM (inactive); in the experiment on SNB-75, 37.8 µM (inactive); in the experiment with HT-29 it was 27.4 µM (inactive); with UACC-257, 23.9 µM (inactive); in the experiment with RPMI-8226 it was 23.1 µM (inactive). For the same molecule, the GI50 with SK-MEL-2 is 14.1 µM (inactive); with SK-OV-3, 88.5 µM (inactive).

Consider `CCOC(=O)C1CCC/C1=N\NC(=N)N.Cc1cc(O)c(C(C)C)cc1S(=O)(=O)O` (stereo not given), for which the GI50 with A549, in the experiment with EKVX, in the experiment on RXF 393, in the experiment with OVCAR-8, in the experiment on OVCAR-5 and in the experiment on MDA-MB-231 was > 100 µM (inactive) in each case. Moreover, the GI50 with HL-60, with BT-549, with SW-620, in the experiment with ACHN, in the experiment on HOP-62 and in the experiment with SN12C was > 100 µM (inactive) each time. Besides, the GI50 in the experiment on T47D is > 100 µM (inactive); in the experiment on SK-MEL-28, > 100 µM (inactive); in the experiment on SNB-75, 36.2 µM (inactive); with HT-29 it was > 100 µM (inactive); in the experiment with UACC-257 it was > 100 µM (inactive); with RPMI-8226, > 100 µM (inactive). In addition, the GI50 with SK-MEL-2 and in the experiment with SK-OV-3 was > 100 µM (inactive) throughout.

Regarding `COC(=O)C1=C(C(=O)OC)N(c2ccc(OC)cc2[N+](=O)[O-])C(c2ccc(C)cc2)=CC1c1ccc(OC)cc1OC` (stereo not given), the GI50 with A549 is 7.89 µM (inactive); with EKVX, 34.5 µM (inactive); with RXF 393, 5.25 µM (inactive); in the experiment on OVCAR-8 it was 13.6 µM (inactive); in the experiment with OVCAR-5, 34.5 µM (inactive); in the experiment with MDA-MB-231, 23.3 µM (inactive). The GI50 in the experiment on HL-60 was 3.8 µM (inactive); with BT-549, 11.3 µM (inactive); in the experiment on SW-620, 3.88 µM (inactive); in the experiment on ACHN, 18.7 µM (inactive); in the experiment on HOP-62 it was 26.4 µM (inactive); in the experiment with SN12C, 13.6 µM (inactive). Also, the GI50 was 11.1 µM (inactive) in the experiment with T47D; 64.3 µM (inactive) in the experiment on SK-MEL-28; 18.7 µM (inactive) in the experiment on SNB-75; 6.53 µM (inactive) in the experiment on HT-29; 23.1 µM (inactive) with UACC-257; 2.07 µM (inactive) in the experiment on RPMI-8226. Moreover, the GI50 in the experiment on SK-MEL-2 is 29.6 µM (inactive); in the experiment on SK-OV-3, 25.8 µM (inactive).

As for `CC(=O)Nc1ccc2c3c(cc(O)c2c1)N(C(=O)CCCCCCC(=O)N1CC(CCl)c2c1cc(O)c1cc(NC(C)=O)ccc21)CC3CCl` (stereo not given), the GI50 in the experiment on A549 was 0.0113 µM (active); with EKVX it was 0.0505 µM (active); in the experiment with RXF 393 it was < 0.01 µM (active); in the experiment on OVCAR-8, < 0.01 µM (active); in the experiment with OVCAR-5 it was 0.0325 µM (active); with MDA-MB-231 it was 0.0203 µM (active). In addition, the GI50 in the experiment with HL-60 is < 0.01 µM (active); with BT-549, < 0.01 µM (active); with SW-620, 0.0151 µM (active); with ACHN it was < 0.01 µM (active); in the experiment on HOP-62, < 0.0116 µM (active); with SN12C, < 0.01 µM (active). The GI50 with T47D was < 0.01 µM (active); in the experiment with SK-MEL-28 it was 0.0148 µM (active); with SNB-75 it was < 0.01 µM (active); in the experiment on HT-29, 0.0172 µM (active); in the experiment with UACC-257, 0.0104 µM (active); in the experiment on RPMI-8226, 0.059 µM (active). The GI50 in the experiment with SK-MEL-2 is < 0.01 µM (active); in the experiment with SK-OV-3, 0.017 µM (active).

For `C=C1C(=O)OC2C(C)C3C=CC(=O)[C@@]3(C)C(OC(=O)/C(C)=C/C)C1[C@@H]2OC(C)=O` (stereo not given in full), the GI50 in the experiment with A549 is 1.67 µM (inactive); in the experiment with EKVX, 0.551 µM (active); in the experiment with RXF 393, 0.215 µM (active); in the experiment with OVCAR-8 it was 0.24 µM (active); in the experiment on OVCAR-5 it was 1.88 µM (inactive); in the experiment with MDA-MB-231 it was 0.259 µM (active). Besides, the GI50 with HL-60 is 0.327 µM (active); with BT-549 it was 0.28 µM (active); with SW-620, 0.257 µM (active); with ACHN, 0.589 µM (active); in the experiment with HOP-62, 1.25 µM (inactive); in the experiment on SN12C it was 0.468 µM (active). Besides, the GI50 in the experiment with T47D was 0.336 µM (active); with SK-MEL-28, 0.593 µM (active); in the experiment with SNB-75, 1.1 µM (active); in the experiment on HT-29 it was 0.486 µM (active); in the experiment on UACC-257, 0.641 µM (active); in the experiment with RPMI-8226, 0.486 µM (active). The GI50 with SK-MEL-2 was 0.278 µM (active); with SK-OV-3 it was 1.59 µM (inactive).

Values taken from ChEMBL document CHEMBL1201862, “PubChem BioAssay data set” (2004).
